Where two headings read alike, the source gives them in different places.
Tests used:
HCT116 cells [1] = format: cell-based; set-up: unit not given here
HCT116 cells [2] = conditions: read-out: IC50 (the drug concentration producing 50% inhibition of colony formation), drugs 72 hours, colonies counted after 8 days
Protocol: To test the effect of androsterone derivatives of this example, HCT116cells (colorectal carcinoma cells) were plated in 60 mm Petri dishes containing 2.7 ml of medium (modified McCoy's 5a medium containing 10% fetal bovine serum and 100 units/ml penicillin and 100 µg/ml streptomycin). The cells were incubated in a CO2 incubator at 37° C. for 5 hours for attachment to the bottom of Petri dishes. Drugs were made up fresh in medium at ten times the final concentration, and then 0.3 ml of tins stock solution was added to the 2.7 ml of medium containing 5% bovine calf serum (BCS) in the dish. The cells were then incubated with drugs for 72 hours at 37° C. At the end of incubation the drug-containing media were decanted, the dishes were rinsed with 4 ml of Hank's Balance Salt Solution (HBSS). […] The cell colonies stained with methylene blue (0.5% in ethanol) were counted using colony counter after incubation for 8 days for HCT116 cells.

| SMILES | In vitro antitumor activity against HCT116 cells (HCT116 cells [1]; 10 μM) | IC50 (HCT116 cells [2]) [nM] | In vitro antitumor activity against HCT116 cells (HCT116 cells [1]; 1 μM) | In vitro antitumor activity against HCT116 cells (HCT116 cells [1]; 100 nM) |
| --- | --- | --- | --- | --- |
| O=c1[nH]cc(F)c(=O)[nH]1 [5-FU, reference compound] | 17.00 | – | – | – |
| CC[C@@]1(OC(=O)COc2ccc(C(=O)O[C@@H]3CC[C@@]4(C)[C@@H](CC[C@@H]5[C@@H]4CC[C@]4(C)C(=O)CC[C@@H]54)C3)cc2)C(=O)OCc2c1cc1n(c2=O)Cc2cc3ccccc3nc2-1 [compound 010216, Camptothecin-20S-O-(4-carboxyphenexyacetate) linked with androsterone] | – | 2.5 | – | – |
| CC[C@@]1(OC(=O)COc2ccc(C(=O)O[C@H]3CC[C@@]4(C)[C@@H](CC[C@@H]5[C@@H]4CC[C@]4(C)C(=O)CC[C@@H]54)C3)cc2)C(=O)OCc2c1cc1n(c2=O)Cc2cc3ccccc3nc2-1 [compound 0103021, Camptothecin-20S-O-(4-carboxyphenoxyacetate) linked with epiandrosterone] | – | 3.5 | – | – |
| CC(ON=C1c2cc([N+](=O)[O-])cc([N+](=O)[O-])c2-c2c1ccc([N+](=O)[O-])c2[N+](=O)[O-])C(=O)O[C@H]1CC[C@@]2(C)[C@@H](CC[C@@H]3[C@@H]2CC[C@]2(C)C(=O)CC[C@@H]32)C1 (stereo partly drawn) [compound 991022, (3β,5α)-3-Hydroxyandrostan-17-one (+)-2-(2,4,5,6-tetranitro-9-flourenylidene-aminooxy)proprionate] | 0 | – | 100 | – |
| C[C@]12CC[C@H](OC(=O)c3ccc([N+](=O)[O-])o3)C[C@@H]1CC[C@@H]1[C@@H]2CC[C@]2(C)C(=O)CC[C@@H]12 [compound 991027, (3β,5α)-3-Hydroxyandrostan-17-one 5-nitro-2-furoate] | 0 | – | 0 | 4.00 |
| C[C@]12CC[C@H](OC(=O)CCC(=O)OCc3ccc4c(c3)C(=O)c3ccccc3C4=O)C[C@@H]1CC[C@@H]1[C@@H]2CC[C@]2(C)C(=O)CC[C@@H]12 [compound 991120, 1-((3β,5α)-3-Hydroxyandrostan-17-one)-4-(2-(hydroxymethyl)anthraquinone)-succinate] | 0 | – | 100 | – |

Reference: US20090105202A1 (priority 2005, published 2009)
